Reference: article PMC11747885, “Potent inhibitors of the human RNA ligase Rlig1 highlights its role in RNA integrity maintenance under oxidative cellular stress” (Chemical Science, 2025)
Where “and” joins values, the source holds several entries; their conditions need not be identical. Equal values may be shown once. Read-outs that look alike come from different tables or passages of the source.

How the values were obtained:
[1] = target: Hsp90-TPR2A; set-up: method as in MedChemExpress; details: interaction of Hsp90-TPR2A; ref MedChemExpress; cited from earlier work
[2] = target: T1, Rlig1-AMP (Homo sapiens, UniProt Q8N999); test: FRET-based high-throughput screening of inhibitors for Rlig1-AMP; assay type: biochemical; details: for 1-D Distance: difference of raw data w/o and w enzyme; for Raw data [w Enyzm]: with enzyme; for Raw data [w/o Enzym]: without enzyme
T1 construct: made in house; host or cells: E. coli BL21 (DE3), pET15b-Rlig1

[3] = in DMSO; ref MedChemExpress; cited from earlier work
[4] = system: FAAH; set-up: method as in MedChemExpress; details: mouse FAAH; ref MedChemExpress; cited from earlier work
[5] = system: FAAH; set-up: method as in MedChemExpress; details: rat FAAH; ref MedChemExpress; cited from earlier work
[6] = system: FAAH; set-up: method as in MedChemExpress; details: human FAAH; ref MedChemExpress; cited from earlier work
[7] = system: G9a; set-up: method as in MedChemExpress [1]; details: ref MedChemExpress [1]; cited from earlier work
[8] = system: NO production; set-up: method as in MedChemExpress; details: ref MedChemExpress; cited from earlier work
[9] = DMSO; ultrasonic/warming; ref MedChemExpress; cited from earlier work
[10] = system: ERβ; set-up: method as in MedChemExpress; details: ref MedChemExpress; read-out: IC50, binding to ERβ; cited from earlier work
[11] = system: EGFR; set-up: method as in MedChemExpress; details: ref MedChemExpress; cited from earlier work
[12] = target: factor IXaβ (FIXa); set-up: method as in MedChemExpress [1][2][3]; details: ref MedChemExpress [1][2][3]; cited from earlier work
[13] = system: HIV-1; details: ref MedChemExpress; cited from earlier work
[14] = system: Dengue Fever virus; set-up: method as in MedChemExpress; details: ref MedChemExpress; cited from earlier work
[15] = system: Rift Valley virus; details: cited from earlier work
[16] = system: HCV; set-up: method as in MedChemExpress; details: ref MedChemExpress; cited from earlier work
[17] = system: Ebola virus; details: cited from earlier work
[18] = target: phosphodiesterase 3 (PDE3); set-up: method as in MedChemExpress; details: ref MedChemExpress; cited from earlier work
[19] = target: phosphodiesterase 5 (PDE5); set-up: method as in MedChemExpress; details: ref MedChemExpress; cited from earlier work
[20] = target: phosphodiesterase 4 (PDE4); set-up: method as in MedChemExpress; details: ref MedChemExpress; cited from earlier work
[21] = target: Acyl-coenzyme A: cholesterol acyltransferase (ACAT); set-up: method as in MedChemExpress [1]; details: rat liver microsomal ACAT; ref MedChemExpress [1]; cited from earlier work
[22] = system: FLT3 D835Y; set-up: method as in MedChemExpress [1][2][3]; details: ref MedChemExpress [1][2][3]; cited from earlier work
[23] = system: FLT3 internal tandem duplication (ITD); set-up: method as in MedChemExpress [1][2][3]; details: ref MedChemExpress [1][2][3]; cited from earlier work
[24] = system: FLT3 WT; set-up: method as in MedChemExpress [1][2][3]; details: ref MedChemExpress [1][2][3]; cited from earlier work
[25] = system: Cdc25A; set-up: method as in MedChemExpress [1]; details: ref MedChemExpress [1]; cited from earlier work
[26] = system: Cdc25B; set-up: method as in MedChemExpress [1]; details: ref MedChemExpress [1]; cited from earlier work
[27] = system: Cdc25C; set-up: method as in MedChemExpress [1]; details: ref MedChemExpress [1]; cited from earlier work
[28] = set-up: method as in MedChemExpress [1]; details: ref MedChemExpress [1]; read-out: IC50 superoxide anion scavenging; cited from earlier work
[29] = set-up: method as in MedChemExpress [1]; details: ref MedChemExpress [1]; read-out: IC50 DPPH radical scavenging; cited from earlier work
[30] = system: TLR4 signaling; set-up: method as in MedChemExpress [1][2][3]; details: ref MedChemExpress [1][2][3]; cited from earlier work
[31] = system: PI5P4Kα; set-up: method as in MedChemExpress [1]; details: ref MedChemExpress [1]; cited from earlier work
[32] = system: H+/K+-ATPases; set-up: method as in MedChemExpress [1]; details: porcine, canine, and human, in vitro; ref MedChemExpress [1]; cited from earlier work
[33] = system: proton transport; set-up: method as in MedChemExpress; details: ref MedChemExpress; read-out: EC50, inhibition of proton transport; cited from earlier work
[34] = target: Insulin-like Growth Factor 1 Receptor (IGF1R); set-up: method as in MedChemExpress; details: ref MedChemExpress; cited from earlier work
[35] = target: NTPDase 1 (CD39); set-up: method as in MedChemExpress; details: ref MedChemExpress; cited from earlier work
[36] = target: NTPDase 2; set-up: method as in MedChemExpress; details: ref MedChemExpress; cited from earlier work
[37] = target: NTPDase 3; set-up: method as in MedChemExpress; details: ref MedChemExpress; cited from earlier work
[38] = HTS hits, normalized value (npi)
[39] = sheet HTS hits, MedChemExpress library
[40] = HTS hits, normalised value of 1-D Distance

T1 sequence (Q8N999 whole entry): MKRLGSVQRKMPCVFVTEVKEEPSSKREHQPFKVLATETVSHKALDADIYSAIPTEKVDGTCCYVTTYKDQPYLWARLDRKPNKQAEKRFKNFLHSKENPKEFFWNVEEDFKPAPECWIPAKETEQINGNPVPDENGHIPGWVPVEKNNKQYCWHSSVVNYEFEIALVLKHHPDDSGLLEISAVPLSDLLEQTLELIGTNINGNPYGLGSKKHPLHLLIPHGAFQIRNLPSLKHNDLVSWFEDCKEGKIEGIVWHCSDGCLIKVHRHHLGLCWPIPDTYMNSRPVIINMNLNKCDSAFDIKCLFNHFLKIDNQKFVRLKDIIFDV

Compound | 1-D Distance ([2]; HTS hits) | Raw data [w Enyzm] ([2]; HTS hits) | Raw data [w/o Enzym] ([2]; HTS hits) | 1-D Distance.npi [2, 39] | 1-D Distance ([2]; sheet HTS hits) | Raw data [w Enyzm] ([2]; sheet HTS hits) | Raw data [w/o Enzym] ([2]; sheet HTS hits) | solubility, DMSO [3] | other results
Cn1nc(-c2ccccc2)nc2c(=O)n(C)c(=O)nc1-2 [3-Phenyltoxoflavin] | 2083 | 15668 | 17751 | – | – | – | – | – | Kd [1]: 585 nM; 1-D Distance.npi [2, 38]: 71.558
COc1ccc(-c2coc3cc(O)cc(O)c3c2=O)cc1 [Biochanin A] | – | – | – | 79.7493 | 1536 | 8945 | 10481 | DMSO : ≥ 50 mg/mL (175.90 mM) | IC50 [4]: 1800 nM; IC50 [5]: 1400 nM; IC50 [6]: 2400 nM
COc1cc2c(NCC3CCN(C)CC3)cc(-c3ccc(C)o3)nc2cc1OCCCN1CCCC1.Cl.Cl.Cl [CM-579 trihydrochloride] | – | – | – | 80.8725 | 1286 | 6218 | 7504 | – | IC50 [7]: […]
CC(/C=C/C=C(\C)C(=O)O[C@@H]1O[C@H](CO)[C@@H](O)[C@H](O)[C@H]1O)=C\C=C\C=C(C)\C=C\C=C(/C)C(=O)O[C@@H]1O[C@H](CO[C@@H]2O[C@H](CO)[C@@H](O)[C@H](O)[C@H]2O)[C@@H](O)[C@H](O)[C@H]1O [Crocin II] | 1772 | 3357 | 5129 | – | – | – | – | – | 1-D Distance.npi [2, 40]: 72.9439; IC50 [8]: 31100 nM; solubility, DMSO [9]: 25 mg/mL and 30.68 mM
OC[C@H]1O[C@@H](Oc2cc3c(O)cc(O)cc3[o+]c2-c2cc(O)c(O)c(O)c2)[C@H](O)[C@@H](O)[C@@H]1O.[Cl-] [Delphinidin 3-glucoside (chloride)] | 1749 | 3316 | 5065 | – | – | – | – | – | IC50 [10]: 9700 nM; IC50 [11]: 2370 nM; 1-D Distance.npi [2, 40]: 73.356
CN1CCc2nc(C(=O)N[C@@H]3C[C@@H](C(=O)N(C)C)CC[C@@H]3NC(=O)C(=O)Nc3ccc(Cl)cn3)sc2C1.Cc1ccc(S(=O)(=O)O)cc1.O [Edoxaban (tosylate monohydrate)] | – | – | – | 77.5766 | 1653 | 9167 | – | – | Ki [12]: 41700 nM
Cc1cc(NCCCN(C)C)c2ccc3c(ccc4c(NCCCN(C)C)cc(C)nc43)c2n1.Cl.Cl.Cl.Cl [FGI-106 (tetrahydrochloride)] | 429 | 7836 | 8265 | – | – | – | – | – | EC50 [13]: 150 nM; EC50 [14]: 400 to 900 nM; EC50 [15]: 800 nM; 1-D Distance.npi [2, 38]: 96.4905; EC50 [16]: 200 nM; EC50 [17]: 100 nM
Cl.O=C1NCC2(CCN(CCc3ccccc3)CC2)O1 [Fenspiride (hydrochloride)] | 1963 | 8551 | 10514 | – | – | – | – | – | 1-D Distance.npi [2, 40]: 70.4519; -log IC50, PDE3 [18]: 3.44; -log IC50, PDE5 [19]: ~3.8; -log IC50, PDE4 [20]: 4.16
CC(C)=CCc1cc([C@@H]2CC(=O)c3ccc(O)c(CC=C(C)C)c3O2)ccc1O [Glabrol] | – | – | – | – | 1660 | 8836 | 10496 | DMSO : 100 mg/mL (254.78 mM; Need ultrasonic) | IC50 [21]: 24600 nM
Cc1ccc2c(-c3nc(Nc4cc(CN5C[C@@H](C)N[C@@H](C)C5)cc(C5CC5)c4)ncc3Cl)c[nH]c2c1 [HM43239] | – | – | – | – | 834 | 6467 | 5633 | DMSO : 125 mg/mL (249.47 mM; Need ultrasonic) | IC50 [22]: […]; IC50 [23]: 1.8 nM; IC50 [24]: […]
Cc1ccc(Cn2cc(CNC3=C(Cl)C(=O)c4cccnc4C3=O)nn2)cc1 [M2N12] | – | – | – | 96.6155 | 465 | 6859 | 7324 | DMSO : 11.11 mg/mL (28.21 mM; ultrasonic and warming and heat to 67°C) | IC50 [25]: 530 nM; IC50 [26]: 1390 nM; IC50 [27]: 90 nM
O=C1O[C@@H]2[C@@H](O)[C@H](O)[C@@H](CO)O[C@H]2c2c1cc(O)c(O)c2O [Norbergenin] | – | – | – | – | 1829 | 9099 | 10928 | DMSO : 125 mg/mL (397.79 mM; Need ultrasonic) | IC50 [28]: 32000 nM; IC50 [29]: 13000 nM
C/C(=N\N=C(N)N)c1cc(NC(=O)CCCCCCCCC(=O)Nc2cc(/C(C)=N/N=C(N)N)cc(/C(C)=N/N=C(N)N)c2)cc(/C(C)=N/N=C(N)N)c1.Cl.Cl.Cl.Cl [Semapimod (tetrahydrochloride)] | – | – | – | 101.371 | 217 | 4067 | 3850 | – | IC50 [30]: ~300 nM
CN(C)C/C=C/C(=O)Nc1ccc(C(=O)Nc2cccc(Nc3cc(-c4c[nH]c5ccccc45)ncn3)c2)cc1 [THZ-P1-2] | – | – | – | 94.2865 | 656 | 5306 | 4650 | – | IC50 [31]: 190 nM
Cc1nc2cc(C(=O)N(C)C)cc(O[C@H]3CCOc4cc(F)cc(F)c43)c2[nH]1 [Tegoprazan] | – | – | – | – | 1843 | 8992 | 10835 | DMSO : 100 mg/mL (258.14 mM; Need ultrasonic) | IC50 [32]: 290 to 520 nM
CCCCCCCCCCCCCCCC[N+](C)(C)CCN(Cc1ccc(OC)cc1)c1ncccn1.[Br-] [Thonzonium (bromide)] | 365 | 4968 | 4603 | – | – | – | – | – | 1-D Distance.npi [2, 40]: 101.053; EC50 [33]: 69000 nM
Indirubin Derivative E804 | – | – | – | 87.7994 | 1070 | 1875 | 2945 | – | IC50 [34]: 650 nM
Sodium metatungstate | 673 | 16164 | 15491 | – | – | – | – | – | Ki [35]: 2580 nM; 1-D Distance.npi [2, 38]: 95.6511; Ki [36]: 28800 nM; Ki [37]: 3260 nM
